Experimental findings from paper PMC3460366, “Synthesis and Antibacterial Evaluation of a New Series of N-Alkyl-2-alkynyl/(E)-alkenyl-4-(1H)-quinolones” (Molecules, 2012) are described below.

For data set [1], the system named is M. smegmatis (ATCC 14468). Description: Microtiter broth dilution MIC against M. smegmatis (ATCC 14468). The class given is cell-based. To be noted: Mycolicibacterium smegmatis, ATCC14468, 72 h, 37 °C, MTT.
Data set [2] has as its target T1, M. tuberculosis MurE ligase (Mycobacterium tuberculosis, UniProt P9WJL3).
T1 construct: made in house; host or cells: E. coli BL21(DE3)pLysS
In words: M. tuberculosis MurE inhibition assay (phosphate colorimetric detection). Type of data set: biochemical. To be noted: tested at 1000, 300, 100 and 30 µM; IC50 from plot of percent inhibition vs. concentration; read-out: IC50 Mtb MurE.

Data set [3] concerns M. phlei (ATCC 11758). In words: Broth dilution MIC against M. phlei. Type of data set: cell-based. To be noted: Mycolicibacterium phlei, ATCC11758, 72 h.
Data set [4] has as its system M. bovis BCG (ATCC 35734). In words: microbe, parasite or virus in culture. Type of data set: cell-based. Particulars: Mycobacterium tuberculosis variant bovis BCG, 336 h, read-out: MIC M. bovis BCG.
Data set [5] deals with M. fortuitum (ATCC 6841). In words: Broth dilution MIC against M. fortuitum. The class given is cell-based. Particulars: Mycolicibacterium fortuitum, ATCC6841, 72 h. For orientation: Dilution methods test growth across graded concentrations, often in twofold steps.
Data set [6] relates to S. aureus EMRSA-15. Description: Broth dilution MIC against EMRSA-15. The class given is cell-based. Particulars: Staphylococcus aureus, EMRSA15, 18 h.
The test system of data set [7] is human diploid embryonic lung cell line MRC-5. Description: XTT cytotoxicity assay on MRC-5 cells. The class given is cell-based. To be noted: XTT. The protocol:
In order to assess the cytotoxicity of these novel quinolone derivatives, the effect on the viability of a human lung fibroblast cell line MRC-5, was measured using XTT proliferation assay. […] In addition, the position of the triple bond in the side chain seems to have a significant influence on cytotoxcity which is increased in compounds with a triple bond more distant to the quinolone nucleus. This can be concluded by comparing results of 8l, 8n, 8p, and 8r having similar antimycobacterial activity on M. smegmatis but different cytotoxcity depending on triple bond position.
The cytotoxic activity of the synthetic compounds was determined by means of an XTT Cell Proliferation Kit II (Roche Diagnostics, Mannheim, Germany) using the human diploid embryonic lung cell line MRC-5 [11]. The quinolone derivatives were tested at concentrations of 100, 60, 30 and 10 µM in triplicate and the percentage of viable cells at each concentration was determined by comparing with the control.
A general note: Tetrazolium assays rely on reduction of a dye to a coloured formazan, in cell work by metabolically active cells.

Data set [8] deals with M. smegmatis mc^2155. Description: Broth dilution MIC against M. smegmatis mc^2155. The class given is cell-based. To be noted: Mycolicibacterium smegmatis, 72 h.
Data set [9] has as its system S. aureus EMRSA-16. In words: Broth dilution MIC against EMRSA-16. To be noted: Staphylococcus aureus, EMRSA16, 18 h. The class given is cell-based.

Where “and” joins values, the source holds several entries; their conditions need not be identical. Equal entries are not always repeated.

T1 sequence (P9WJL3 whole entry): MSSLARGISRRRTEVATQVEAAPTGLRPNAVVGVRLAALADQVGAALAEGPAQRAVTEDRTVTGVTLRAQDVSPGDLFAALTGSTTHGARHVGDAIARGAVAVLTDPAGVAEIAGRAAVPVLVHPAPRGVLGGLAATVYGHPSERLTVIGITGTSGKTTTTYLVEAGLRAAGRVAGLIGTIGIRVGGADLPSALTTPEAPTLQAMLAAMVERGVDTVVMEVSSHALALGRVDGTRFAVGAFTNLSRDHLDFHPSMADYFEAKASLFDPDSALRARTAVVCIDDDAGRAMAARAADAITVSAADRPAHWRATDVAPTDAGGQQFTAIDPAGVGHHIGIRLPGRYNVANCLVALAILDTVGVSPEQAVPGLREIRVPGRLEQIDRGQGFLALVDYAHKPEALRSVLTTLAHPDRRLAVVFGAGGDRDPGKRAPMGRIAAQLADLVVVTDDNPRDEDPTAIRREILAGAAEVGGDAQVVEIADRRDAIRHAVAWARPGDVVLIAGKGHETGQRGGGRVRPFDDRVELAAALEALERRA

Molecule `CCCCCCCCCCC#CCCc1cc(=O)c2ccccc2n1C` [Compound 8o, 1-Methyl-2-(3'-tetradecynyl)-4(1H)-quinolone] gave a melting point of 43 to 45 °C. Also, in [1], the MIC is 2 µg/mL and 5.7 µM. Besides, the half-inhibitory concentration (IC50) in [2] was 774 µM. Also, the MIC in data set [3] was 2 µg/mL and 5.7 µM. Further, the MIC in data set [4] was 25 µg/mL and 71.2 µM. The MIC in [5] is 2 µg/mL and 5.7 µM. Also, the MIC in data set [6] is 8 µg/mL and 22.8 µM. Besides, in [7] (10 µM), the “Metabolic active MRC-5 cells (%)” value amounted to 100 ± 0.73%. Besides, the “Metabolic active MRC-5 cells (%)” value in data set [7] (30 µM) is on record as 97.9 ± 0.88%. In addition, in [7] (60 µM), the “Metabolic active MRC-5 cells (%)” value is reported as 95.8 ± 2.54%. For the same molecule, in [7] (100 µM), the “Metabolic active MRC-5 cells (%)” value was determined as 90.7 ± 3.48%. Also, the MIC in [8] is 1 µg/mL and 2.8 µM. Further, the MIC in [9] was 8 µg/mL and 22.8 µM.
In the case of `CCCCCCCCC#CCCc1cc(=O)c2ccccc2n1CC` [Compound 8k, 1-Ethyl-2-(3'-dodecynyl)-4(1H)-quinolone], the melting point was 66 to 68 °C. In addition, the MIC in [1] was 4 µg/mL and 11.9 µM. The “Metabolic active MRC-5 cells (%)” value in data set [7] (10 µM) worked out at 97.6 ± 1.69%. In addition, the “Metabolic active MRC-5 cells (%)” value in data set [7] (30 µM) turned out to be 95.1 ± 1.04%. Moreover, the “Metabolic active MRC-5 cells (%)” value in data set [7] (60 µM) is reported as 94.7 ± 0.92%. Further, the “Metabolic active MRC-5 cells (%)” value in data set [7] (100 µM) is reported as 74.8 ± 1.99%.
Regarding `CCn1cc(C(=O)O)c(=O)c2cc(F)c(N3CCNCC3)cc21` [Norfloxacin, reference compound], the MIC in data set [6] was 0.5 µg/mL and 1.6 µM; in [9] it was 128 µg/mL and 401 µM.
Take `CCCCCCCCCCCCC#CCCc1cc(=O)c2ccccc2n1C` [Compound 8s, 1-Methyl-2-(3′-hexadecynyl)-4(1H)-quinolone]: the melting point is 58 to 61 °C. In addition, the MIC in [1] was 128 µg/mL and 338 µM. The “Metabolic active MRC-5 cells (%)” value in [7] (10 µM) came out at 93.9 ± 0.61%. Also, in data set [7] (30 µM), the “Metabolic active MRC-5 cells (%)” value is recorded as 92.2 ± 0.70%. In data set [7] (60 µM), the “Metabolic active MRC-5 cells (%)” value is 58.9 ± 3.65%. In data set [7] (100 µM), the “Metabolic active MRC-5 cells (%)” value amounted to 41.5 ± 9.49%.
For `CCCCCCCCCCC#CCCc1cc(=O)c2ccccc2n1CCC` [Compound 8q, 1-(n-Propyl)-2-(3'-tetradecynyl)-4(1H)-quinolone], the MIC is 1 µg/mL and 2.6 µM in [1]; 2 µg/mL and 5.3 µM in data set [3]; 25 µg/mL and 66 µM in data set [4]; 2 µg/mL and 5.3 µM in data set [5]; 2 µg/mL and 5.3 µM in data set [6]; 1 µg/mL and 2.6 µM in data set [8]. Further, the MIC in data set [9] was 128 µg/mL and 338 µM. Further, the half-maximal inhibitory concentration (IC50) in [2] came out at 200 µM. Moreover, the “Metabolic active MRC-5 cells (%)” value stood at 92.7 ± 4.62% in [7] (10 µM), 67.9 ± 2.65% in [7] (30 µM), 19.8 ± 9.85% in data set [7] (60 µM) and 0.2 ± 0.09% in [7] (100 µM).
Take `NNC(=O)c1ccncc1` [Isoniazid, reference compound]: the MIC is 4 µg/mL and 29.2 µM in [1]; 8 µg/mL and 58.3 µM in data set [3]; 0.1 µg/mL and 0.7 µM in [4]; 2 µg/mL and 14.6 µM in data set [5]; 4 µg/mL and 29.2 µM in data set [8].
Take `CCCCCCCCCCC#CCCc1cc(=O)c2ccccc2n1CC` [Compound 8p, 1-Ethyl-2-(3'-tetradecynyl)-4(1H)-quinolone]: the melting point is 74 to 76 °C. Also, the MIC in data set [1] is 1 µg/mL and 2.7 µM. In data set [3], the MIC is 2 µg/mL and 5.5 µM. The MIC in data set [5] is 4 µg/mL and 10.9 µM. Further, the “Metabolic active MRC-5 cells (%)” value in data set [7] (10 µM) worked out at 97.3 ± 1.37%. For the same molecule, the “Metabolic active MRC-5 cells (%)” value in data set [7] (30 µM) was 95.4 ± 0.76%. Besides, in data set [7] (60 µM), the “Metabolic active MRC-5 cells (%)” value came out at 93.3 ± 1.13%. The “Metabolic active MRC-5 cells (%)” value in data set [7] (100 µM) came to 8.75 ± 9.35%. For the same molecule, the MIC in [8] is 1 µg/mL and 2.7 µM.
As to `CN(C)[C@@H]1C(O)=C(C(N)=O)C(=O)[C@@]2(O)C(O)=C3C(=O)c4c(O)cccc4[C@@](C)(O)[C@H]3C[C@@H]12` [Tetracycline, reference compound], the MIC in [6] was 0.25 µg/mL and 0.6 µM; in data set [9], 0.25 µg/mL and 0.6 µM.

In general, melting point refers to the temperature of the solid-liquid transition. By IC50 is commonly meant the concentration that gives 50% inhibition.
